According to EPA's ToxValDB 9.5 (doi:10.2903/j.efsa.2009.339r):

Legend:
[1] = tested on: Rattus norvegicus; conditions: acute; oral; mortality
[2] = tested on: Oncorhynchus mykiss
[3] = reproductive; oral; feed
[4] = tested on: Anas platyrhynchos
[5] = tested on: Bibionidae; conditions: chronic/long-term; duration: 28 days
[6] = tested on: Canidae; conditions: chronic; duration: 1 years; oral; Dog Other; clinical chemistry
[7] = tested on: Tagia sp.; conditions: acute; mortality
[8] = tested on: Apis mellifera; conditions: acute; duration: 48 hours; oral; unspecified; mortality
[9] = tested on: Colinus virginianus
[10] = tested on: Daphnia magna; conditions: chronic/long-term; duration: 21 days; reproduction
[11] = tested on: Typhlodromus pyri; test: LR50; higher = less toxic; conditions: acute; duration: 14 days; mortality

Question: With `CCC(C)(C)C(=O)OC1=C(c2ccc(Cl)cc2Cl)C(=O)OC12CCCCC2` [Spirodiclofen] as the compound, how does the LD50 [1] read?
Answer: > 2500 mg/kg

Question: And the LC50 ([2]; acute, duration: 96 hours, mortality)?
Answer: > 0.0351 µg/mL

Question: And the NOEC ([2]; chronic/long-term, duration: 97 days, time to hatch)?
Answer: 0.00195 mg/L

Question: And the NOEC [3]?
Answer: 6 mg/kg-day

Question: What about the NOEC ([4]; reproductive) of the same compound?
Answer: 111 mg/kg-day

Question: What about the LC50 ([4]; short-term, oral, feed, mortality) of the same compound?
Answer: > 2270 mg/kg-day

Question: And the NOEC [5]?
Answer: 0.032 mg/L

Question: And the NOAEL [6]?
Answer: 1.45 mg/kg-day

Question: What about the LC50 [7] of the same compound?
Answer: > 1000 mg/kg

Question: And the LD50 [8]?
Answer: > 196 µg/piece

Question: What about the LC50 ([9]; acute, oral, diet, mortality) of the same compound?
Answer: > 1060 mg/kg-day

Question: What about the LD50 ([9]; acute, oral, mortality) of the same compound?
Answer: > 2000 mg/kg

Question: What about the NOEC ([9]; reproduction developmental) of the same compound?
Answer: 51 mg/kg-day

Question: And the NOEC [10]?
Answer: 0.0111 mg/L

Question: What about the LR50 [11] of the same compound?
Answer: 2.4 g/ha
